The text below walks through data of patent US10183947B2, “Pyrazole derivatives useful as 5-lipoxygenase activating protein (FLAP) inhibitors” (ASTRAZENECA AB, priority 2015, dated 2019).

Structures are written as SMILES.

For assay [1], the system named is LTB4 production in fresh human whole blood. Briefly: FLAP Whole Blood Assay (Test B), inhibition of LTB4 production. In kind it is cell-based. Conditions: method B: compound incubated with human whole blood at 37° C. for 4 h, then calcium ionophore A23187; LTB4 by EIA; read-out: IC50 nM (method B). The method, then:
FLAP Whole Blood Assay (Test B)
Compounds were tested for the inhibition of LTB4 production in fresh human whole blood obtained by venapuncture using heparin to prevent clotting. 1.5 μL compounds or DMSO carrier were dispensed into the wells of a 96-well deep-well plate in 3-fold dilution series. 500 μL hepamised whole blood was then added followed by incubation at 37° C. for 30 min (method A) or 4 h (method B). 100 μL blood was subsequently transferred in triplicate to pre-dispensed 0.5 μL 2 mM calcium ionophore (calcimycin; A23187) in a second 96-well plate. Following incubation at 37° C. for 20 min, the assays were stopped by adding 10 μL of stop solution (100 mM EGTA, pH 7.4) and the plate was transferred to ice. The plate was centrifuged at 3000 rpm at 4° C. for 10 min and […] was transferred to a fresh 96 well plate containing 90 μL pre-dispensed EIA assay buffer (0.1 M phosphate buffer+0.1% BSA). LTB4 was then measured using reagents from a commercial EIA (Cayman Chemicals). LTB4 production was defined as the LTB4 level in the presence of a given concentration of test compound minus the LTB4 level in the presence of 50 nM 5-[[4-[(2S,4R)-4-hydroxy-2-methyl-tetrahydropyran-4-yl]-2-thienyl]sulfanyl]-1-methyl-indolin-2-one. (Preparation of 5-[[4-[(2S,4R)-4-hydroxy-2-methyl-tetrahydropyran-4-yl]-2-thienyl]sulfanyl]-1-methyl-indolin-2-one was described in Org. Process Res. Dev., 2005, 9, 555-569 or EP623614 B1). Inhibition of LTB4 production was defined as the LTB4 level in the presence of a given concentration of test compound expressed as a % of the LTB4 level in the presence of DMSO. IC50 values were determined by plotting % inhibition versus log compound concentration and using a one site dose response model.

Assay [2] concerns the target FLAP (human ALOX5AP expressed in COS-7 cell membranes) (Homo sapiens (Human), UniProt P20292). As to the kind of experiment: FLAP Binding Assay (Test A), competition binding with 3H-MK591 as tracer. The note with it: competition with 3H-MK591 (2 nM), membranes from COS-7 cells expressing human ALOX5AP, 60 min at rt. Here is the method: FLAP Binding Assay (Test A) Compounds were tested in a competition binding assay using ^3H-MK591 as tracer. […] Med. Chem. […] A 100,000×g pellet from COS-7 cells stably transfected with a plasmid expressing human ALOX5AP was the source of FLAP. […] Following filtration, filter plates were dried 12 h at RT (or 50° C. for 1 hour). 50 μL scintillant was then added, the filterplates were sealed and radioactivity was measured in a microbeta counter. Specific binding was defined as total binding minus non-specific binding. Total binding was defined as ^3H-MK591 bound to membranes in the absence of competitor, non-specific binding was defined as ^3H-MK591 in the presence of 0.1 mM MK-591. IC50 values were determined by plotting % inhibition versus log compound concentration and using a one site dose response model.

FLAP (human ALOX5AP expressed in COS-7 cell membranes), sequence (P20292 whole entry): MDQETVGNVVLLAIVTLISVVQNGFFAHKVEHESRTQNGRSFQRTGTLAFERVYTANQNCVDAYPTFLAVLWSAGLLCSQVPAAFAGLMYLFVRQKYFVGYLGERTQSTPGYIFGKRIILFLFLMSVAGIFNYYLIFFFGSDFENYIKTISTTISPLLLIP

For `O=C1NCCn2ncc(NC(=O)[C@@H]3CCCC[C@H]3C(=O)c3ccc(-c4ccn[nH]4)cc3)c21` [Example 24, (1R,2R)—N-(4-Oxo-4,5,6,7-tetrahydropyrazolo[1,5-a]pyrazin-3-yl)-2-[4-(1H-pyrazol-5-yl)benzoyl]cyclohexanecarboxamide], the results for the IC50 in assay [1] and in assay [2] were 18 nM and 8.1 nM, respectively.
For `CNS(=O)(=O)c1c(NC(=O)[C@@H]2CCCC[C@H]2C(=O)c2ccc(-c3cc(C)n[nH]3)cc2)cnn1C` [Example 25, (1R,2R)—N-[1-Methyl-5-(methylsulfamoyl)-1H-pyrazol-4-yl]-2-[4-(3-methyl-1H-pyrazol-5-yl)benzoyl]cyclohexanecarboxamide] the same measures were 210 nM and 25 nM.
On to `Cn1cc(NC(=O)[C@@H]2CCCC[C@H]2C(=O)c2ccc(-c3ccn[nH]3)cc2)c(S(N)(=O)=O)n1` [Example 26, (1R,2R)—N-(1-Methyl-3-sulfamoyl-1H-pyrazol-4-yl)-2-[4-(1H-pyrazol-5-yl)benzoyl]cyclohexanecarboxamide], for which the IC50 in assay [1] turned out to be 250 nM; in assay [2] it was 290 nM.
Regarding `CN(C)S(=O)(=O)c1c(NC(=O)[C@@H]2CCCC[C@H]2C(=O)c2ccc(-c3ccn[nH]3)cc2)cnn1C` [Example 27, (1R,2R)—N-[5-(Dimethylsulfamoyl)-1-methyl-1H-pyrazol-4-yl]-2-[4-(1H-pyrazol-5-yl)benzoyl]cyclohexanecarboxamide], the IC50 in assay [1] worked out at 55 nM; in assay [2] it was 65 nM.
With `Cc1cc(-c2ccc(C(=O)[C@@H]3CCCC[C@H]3C(=O)Nc3c(C)nn4c3C(=O)NCC4)cc2)n[nH]1` [Example 28, (1R,2R)—N-(2-Methyl-4-oxo-4,5,6,7-tetrahydropyrazolo[1,5-a]pyrazin-3-yl)-2-[4-(5-methyl-1H-pyrazol-3-yl)benzoyl]cyclohexanecarboxamide], the results for the IC50 in assay [1] and in assay [2] were 380 nM and 3.9 nM, respectively.
With `Cc1nn2c(c1NC(=O)[C@@H]1CCCC[C@H]1C(=O)c1ccc(-c3cc[nH]n3)cc1)C(=O)NCC2` [Example 29, (1R,2R)—N-(2-Methyl-4-oxo-4,5,6,7-tetrahydropyrazolo[1,5-a]pyrazin-3-yl)-2-[4-(1H-pyrazol-5-yl)benzoyl]cyclohexanecarboxamide], the results for the IC50 in assay [1] and in assay [2] were 330 nM and 4.8 nM, respectively.
With `O=C(Nc1cn[nH]c1C(F)F)[C@@H]1CCCC[C@H]1C(=O)c1ccc(-c2cc[nH]n2)cc1` [Example 30, (1R,2R)—N-[5-(Difluoromethyl)-1H-pyrazol-4-yl]-2-[4-(1H-pyrazol-3-yl)benzoyl]cyclohexanecarboxamide], the IC50 in assay [1] came to 50 nM; in assay [2] it was 12 nM.
Consider `Cc1cc(-c2ccc(C(=O)[C@@H]3CCCC[C@H]3C(=O)Nc3nnco3)cc2)[nH]n1` [Example 43, (1R,2R)-2-[4-(3-Methyl-1H-pyrazol-5-yl)benzoyl]-N-(1,3,4-oxadiazol-2-yl)cyclohexanecarboxamide], for which the half-maximal inhibitory concentration (IC50) in assay [1] stood at 904 nM; in assay [2], 140 nM.
